From patent US12098145B2 (Libra Therapeutics, Inc., priority 2022, dated 2024)
pEC50: −log10 of the molar value. Structures can show the parent of a compound that is named as a salt. Where two headings read alike, the source gives them in different places.

Tests used:
TRPML1 = target: T1, TRPML1 (Homo sapiens, UniProt Q9GZU1); test: Cellular TRPML1 assay (FLIPR, GCaMP6f calcium read-out); format: cell-based; conditions: for EC50: HEKT-REx/GCaMP6f/TRPML1 cells, FLIPR TETRA, kinetic response over 300 seconds, read-out: TRPML1 FLIPR pEC50 (converted)
T1 construct: expressed in transfected cells; host or cells: HEK T-REx cells stably expressing GCaMP6f and TRPML1
How it was run: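 Read-out is GCaMP6f fluorescence over 300 s after compound addition in Ca2+-free Tyrode's buffer, final DMSO 0.5%, on FLIPR Tetra. Cells are HEK T-REx stably co-expressing the indicator and TRPML1, plated 24 h earlier in Optimem + 0.5% FBS and pre-incubated ~10 min at room temperature.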

TFEB = TFEB translocation assay (TFEB reporter in U2OS cells, imaging); format: cell-based; conditions: Homo sapiens; U2OS cell line with TFEB reporter, 2 hours incubation, nucleus to cytoplasm ratio, normalized to Torin-1; read-out: TFEB Translocation pEC50 (converted)
How it was run: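 Activity expresses the mean nuclear-to-cytosolic reporter ratio scaled between DMSO (0%) and Torin-1 (100%) controls. Read-out came from high-content imaging of fixed, Hoechst-counterstained U2OS cells carrying mRFP-tagged TFEB after 2 h compound exposure at 37 °C in Opti-MEM with 0.015% Tween 80 and 0.5% DMSO.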

T1 sequence (Q9GZU1 whole entry): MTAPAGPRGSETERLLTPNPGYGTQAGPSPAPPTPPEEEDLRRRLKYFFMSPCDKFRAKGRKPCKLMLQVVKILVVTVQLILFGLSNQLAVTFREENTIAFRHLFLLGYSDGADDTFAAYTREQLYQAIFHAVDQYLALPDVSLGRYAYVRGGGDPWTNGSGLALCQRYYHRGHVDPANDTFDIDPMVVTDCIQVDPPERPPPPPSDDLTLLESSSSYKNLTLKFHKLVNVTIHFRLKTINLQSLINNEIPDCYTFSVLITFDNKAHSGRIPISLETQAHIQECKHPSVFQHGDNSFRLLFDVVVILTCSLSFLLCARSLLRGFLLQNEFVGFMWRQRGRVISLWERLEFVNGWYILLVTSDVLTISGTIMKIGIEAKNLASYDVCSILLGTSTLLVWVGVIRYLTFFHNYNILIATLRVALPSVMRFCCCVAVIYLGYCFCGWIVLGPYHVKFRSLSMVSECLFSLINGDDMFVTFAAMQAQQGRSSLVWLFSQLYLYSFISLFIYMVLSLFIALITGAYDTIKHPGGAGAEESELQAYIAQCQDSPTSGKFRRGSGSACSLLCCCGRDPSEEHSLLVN

Compound	EC50 (TRPML1) [nM]	EC50 (TFEB) [nM]	pEC50 (TRPML1)
CCC1(OC)CN(c2nc(C(=O)Nc3ccc(OC4CC5CC(C5)C4)c(F)c3)c(CC(F)(F)F)o2)C1 (stereo not drawn) [Example 149, N-(4-(bicyclo[3.1.1]heptan-3-yloxy)-3-fluorophenyl)-2-(3-ethyl-3-methoxyazetidin-1-yl)-5-(2,2,2-trifluoroethyl)oxazole-4-carboxamide]	10 to 1000	10 to 1000	–
CCC1(CC)CN(c2nc(C(=O)Nc3cc(C)c(O[C@@H]4C[C@@H]5C[C@@H]5C4)c(F)c3)c(CC(F)(F)F)o2)C1 [Example 131, N-(4-(cis-bicyclo[3.1.0]hexan-3-yloxy)-3-fluoro-5-methylphenyl)-2-(3,3-diethylazetidin-1-yl)-5-(2,2,2-trifluoroethyl)oxazole-4-carboxamide]	10 to 1000	10 to 1000	–
CCC1(CC)CN(c2nc(C(=O)Nc3cc(F)c(O[C@@H]4C[C@@H]5C[C@@H]5C4)c(Cl)c3)c(CC(F)(F)F)o2)C1 [Example 127, N-(4-(cis-bicyclo[3.1.0]hexan-3-yloxy)-3-chloro-5-fluorophenyl)-2-(3,3-diethylazetidin-1-yl)-5-(2,2,2-trifluoroethyl)oxazole-4-carboxamide]	10 to 1000	10 to 1000	–
CCc1oc(N2CC3CCCC3C2)nc1C(=O)Nc1cc(F)c(OC2CC3C[C@H]3C2)c(F)c1 (stereo partly drawn) [Example 240, N-(4-(cis-bicyclo[3.1.0]hexan-3-yloxy)-3,5-difluorophenyl)-5-ethyl-2-(hexahydrocyclopenta[c]pyrrol-2(1H)-yl)oxazole-4-carboxamide]	10 to 1000	10 to 1000	–
COC1(C)CN(c2nc(C(=O)Nc3cc(C)c(O[C@@H]4C[C@@H]5C[C@@H]5C4)c(F)c3)c(CCF)o2)C1 [Example 280, N-(4-(cis-bicyclo[3.1.0]hexan-3-yloxy)-3-fluoro-5-methylphenyl)-5-(2-fluoroethyl)-2-(3-methoxy-3-methylazetidin-1-yl)oxazole-4-carboxamide]	10 to 1000	10 to 1000	–
CCC1(OC)CN(c2nc(C(=O)Nc3cc(F)c(N4CC5CC(C5)C4)c(F)c3)c(CC(F)(F)F)o2)C1 [Example 203, N-(4-(3-azabicyclo[3.1.1]heptan-3-yl)-3,5-difluorophenyl)-2-(3-ethyl-3-methoxyazetidin-1-yl)-5-(2,2,2-trifluoroethyl)oxazole-4-carboxamide]	–	10 to 1000	6.00 to 8.00
O=C(Nc1ccc(N2C3CCCC2C3)c(F)c1)c1nc(N2CCCC2)oc1CC(F)(F)F [Example 83, N-(4-{6-azabicyclo[3.1.1]heptan-6-yl}-3-fluorophenyl)-2-(pyrrolidin-1-yl)-5-(2,2,2-trifluoroethyl)oxazole-4-carboxamide]	–	10 to 1000	6.00 to 8.00
COC1(C)CN(c2nc(C(=O)Nc3cc(C)c(N4C5CCCC4CC5)c(F)c3)c(CCF)o2)C1 [Example 290]	–	10 to 1000	6.00 to 8.00

Second part, led by results:

EC50 (TRPML1) [nM]	Compound	EC50 (TFEB) [nM]	pEC50 (TRPML1)
10 to 1000	CCc1oc(N2CC3CCC3C2)nc1C(=O)Nc1ccc(OC2CC3C[C@H]3C2)c(F)c1 (stereo partly drawn) [Example 247, N-(4-(cis-bicyclo[3.1.0]hexan-3-yloxy)-3-fluorophenyl)-2-(3-azabicyclo[3.2.0]heptan-3-yl)-5-ethyloxazole-4-carboxamide]	10 to 1000	–
1000 to 10000	CC1CCC(Oc2ccc(NC(=O)c3nc(N4CCCC4)oc3CC(F)(F)F)cc2F)C1 (stereo not drawn) [Example 50, N-(3-fluoro-4-((3-methylcyclopentyl)oxy)phenyl)-2-(pyrrolidin-1-yl)-5-(2,2,2-trifluoroethyl)oxazole-4-carboxamide]	1000 to 10000	–
1000 to 10000	CCOCc1oc(N2CCCC2)nc1C(=O)Nc1ccc(N2CCCCC2)c(F)c1 [Example 100, 5-(ethoxymethyl)-N-[3-fluoro-4-(piperidin-1-yl)phenyl]-2-(pyrrolidin-1-yl)oxazole-4-carboxamide]	1000 to 10000	–
10 to 1000	CCc1oc(N2CCC3(CC3)C2)nc1C(=O)Nc1cc(F)c(O[C@@H]2C[C@@H]3C[C@@H]3C2)c(F)c1 [Example 235, N-(4-(cis-bicyclo[3.1.0]hexan-3-yloxy)-3,5-difluorophenyl)-5-ethyl-2-(5-azaspiro[2.4]heptan-5-yl)oxazole-4-carboxamide]	10 to 1000	–
1000 to 10000	Cc1oc(N2CCC3(COC3)C2)nc1C(=O)Nc1ccc(N2CCCCC2)c(F)c1 [Example 90, N-(3-fluoro-4-(piperidin-1-yl)phenyl)-5-methyl-2-(2-oxa-6-azaspiro[3.4]octan-6-yl)oxazole-4-carboxamide]	1000 to 10000	–
1000 to 10000	O=C(Nc1ccc(OC2CCCC2)c(F)c1)c1nc(N2CCC3(COC3)C2)oc1CC(F)(F)F [Example 64, N-(4-(cyclopentyloxy)-3-fluorophenyl)-2-(2-oxa-6-azaspiro[3.4]octan-6-yl)-5-(2,2,2-trifluoroethyl)oxazole-4-carboxamide]	1000 to 10000	–
10000 to 100000	Cc1oc(N2CCC(CO)C2)nc1C(=O)Nc1ccc(N2CCCCC2)c(F)c1 (stereo not drawn) [Example 96, N-(3-fluoro-4-(piperidin-1-yl)phenyl)-2-(3-(hydroxymethyl)pyrrolidin-1-yl)-5-methyloxazole-4-carboxamide]	10000 to 100000	–
10 to 1000	O=C(Nc1ccc(OC2CC3CC(C3)C2)c(F)c1)c1nc(N2CCCC2)oc1CC(F)(F)F (stereo not drawn) [Example 143, N-(4-(bicyclo[3.1.1]heptan-3-yloxy)-3-fluorophenyl)-2-(pyrrolidin-1-yl)-5-(2,2,2-trifluoroethyl)oxazole-4-carboxamide]	10 to 1000	–
1000 to 10000	CC1CCCN1c1nc(C(=O)Nc2ccc(OC3CCCC3)c(F)c2)c(CC(F)(F)F)o1 (stereo not drawn) [Example 54, N-(4-(cyclopentyloxy)-3-fluorophenyl)-2-(2-methylpyrrolidin-1-yl)-5-(2,2,2-trifluoroethyl)oxazole-4-carboxamide]	10000 to 100000	–
10 to 1000	Cc1cc(NC(=O)c2nc(N3CCCC3)oc2CC(F)(F)F)cc(F)c1NC1CC2CC(C2)C1 (stereo not drawn) [Example 193, N-(4-(bicyclo[3.1.1]heptan-3-ylamino)-3-fluoro-5-methylphenyl)-2-(pyrrolidin-1-yl)-5-(2,2,2-trifluoroethyl)oxazole-4-carboxamide]	10 to 1000	–
10 to 1000	O=C(Nc1ccc(OC2CCCC2(F)F)c(F)c1)c1nc(N2CCC3(CCC3)C2)oc1CC(F)(F)F (stereo not drawn) [Example 15, N-(4-((2,2-difluorocyclopentyl)oxy)-3-fluorophenyl)-2-(6-azaspiro[3.4]octan-6-yl)-5-(2,2,2-trifluoroethyl)oxazole-4-carboxamide]	10 to 1000	–
10 to 1000	CCc1oc(N2CCCC2)nc1C(=O)Nc1cc(C)c(OC2CC3CC(C3)C2)c(F)c1 (stereo not drawn) [Example 225, N-(4-(bicyclo[3.1.1]heptan-3-yloxy)-3-fluoro-5-methylphenyl)-5-ethyl-2-(pyrrolidin-1-yl)oxazole-4-carboxamide]	10 to 1000	–
10 to 1000	O=C(Nc1cc(F)c(O[C@@H]2C[C@@H]3C[C@@H]3C2)c(F)c1)c1nc(N2CCCC2)oc1CN1CCCC1 [Example 308, N-(4-(cis-bicyclo[3.1.0]hexan-3-yloxy)-3,5-difluorophenyl)-2-(pyrrolidin-1-yl)-5-(pyrrolidin-1-ylmethyl)oxazole-4-carboxamide hydrochloride]	10 to 1000	–
